Experimental data: the supplement of paper PMC8253809

How the values were obtained:
DIPGX29 [1] = H3.3 K27M diffuse intrinsic pontine glioma line; assay: area under dose-response curve of % growth inhibition (log2 RLU vs DMSO / staurosporine), 1e-11 to 1e-4 M (% x log10 M); higher = more growth inhibition
Procedure, shortened: (§1)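 Cells were exposed in triplicate for 7 days (iAstro: 3 days) at 37 °C, 5% CO2 to a 10-point series of threefold dilutions with a mean top concentration of 35 μM. These were patient-derived pHGG/DIPG lines plus astrocytes, grown on 384-well plates coated with 1% Geltrex. Readout was CellTiter-Glo luminescence, log2-transformed and set per plate to % activity between solvent and positive controls, from which area under the curve was derived by trapezoid rule on a log-logistic fit or, failing that, a smoothing spline.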

DIPGX37 = H3.3 K27M diffuse intrinsic pontine glioma line; assay: as above
Procedure, shortened: as §1

DIPGX7 = H3.3 K27M diffuse intrinsic pontine glioma line; assay: as above
Procedure, shortened: as §1

DIPGX9 = diffuse intrinsic pontine glioma line; assay: as above
Procedure, shortened: as §1

HABS = astrocyte control; assay: as above
Procedure, shortened: as §1

HGGX2 = paediatric high-grade glioma line; assay: as above
Procedure, shortened: as §1

HGGX39 = paediatric high-grade glioma line; assay: as above
Procedure, shortened: as §1

HGGX42 = H3.3 G34R paediatric high-grade glioma line; assay: as above
Procedure, shortened: as §1

HGGX6 = H3.3 G34R paediatric high-grade glioma line; assay: as above
Procedure, shortened: as §1

SUDIPGIV = diffuse intrinsic pontine glioma line; assay: as above
Procedure, shortened: as §1

SUDIPGVI = diffuse intrinsic pontine glioma line; assay: as above
Procedure, shortened: as §1

SUDIPGXIII = diffuse intrinsic pontine glioma line; assay: as above
Procedure, shortened: as §1

SUDIPGXIX = diffuse intrinsic pontine glioma line; assay: as above
Procedure, shortened: as §1

SUDIPGXVII = diffuse intrinsic pontine glioma line; assay: as above
Procedure, shortened: as §1

SUDIPGXXI [2] = diffuse intrinsic pontine glioma line; assay: as above
Procedure, shortened: as §1

iAstro [3] = astrocyte control; assay: as above
Procedure, shortened: as §1

SUDIPGXXI [4] = assay: EC50 (inflection of fitted growth-inhibition curve) (log10 M)
Procedure, shortened: (§2)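 EC50 and maximal response (yFin) were derived from the lowest-AICc fit, either three- or four-parameter log-logistic. The data were pooled CellTiter-Glo luminescence values, log2-transformed and normalised per plate to % activity between negative (solvent) and positive controls. Patient-derived pHGG/DIPG cell lines and astrocyte controls on 1% Geltrex-coated 384-well plates received a 10-point threefold dilution series (mean top concentration 35 μM) by pin tool, in triplicate, for 7 days (iAstro 3 days) at 37 °C, 5% CO2.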

SUDIPGXXI [5] = assay: maximal growth inhibition (yFin) relative to DMSO / staurosporine; higher = more efficacious
Procedure, shortened: as §2

DIPGX29 [6] = assay: EC50 (inflection of fitted growth-inhibition curve) (log10 M)
Procedure, shortened: as §2

DIPGX29 [7] = assay: maximal growth inhibition (yFin) relative to DMSO / staurosporine; higher = more efficacious
Procedure, shortened: as §2

iAstro [8] = assay: EC50 (inflection of fitted growth-inhibition curve) (log10 M)
Procedure, shortened: as §2

iAstro [9] = assay: maximal growth inhibition (yFin) relative to DMSO / staurosporine; higher = more efficacious
Procedure, shortened: as §2

| Compound | area under dose-response curve (DIPGX29 [1]) | area under dose-response curve (DIPGX37) | area under dose-response curve (DIPGX7) | area under dose-response curve (DIPGX9) | area under dose-response curve (HABS) | area under dose-response curve (HGGX2) | area under dose-response curve (HGGX39) | area under dose-response curve (HGGX42) | area under dose-response curve (HGGX6) | area under dose-response curve (SUDIPGIV) | area under dose-response curve (SUDIPGVI) | area under dose-response curve (SUDIPGXIII) | area under dose-response curve (SUDIPGXIX) | area under dose-response curve (SUDIPGXVII) | area under dose-response curve (SUDIPGXXI [2]) | area under dose-response curve (iAstro [3]) | EC50 (log10 M) (SUDIPGXXI [4]) | maximal growth inhibition (SUDIPGXXI [5]) | EC50 (log10 M) (DIPGX29 [6]) | maximal growth inhibition (DIPGX29 [7]) | EC50 (log10 M) (iAstro [8]) | maximal growth inhibition (iAstro [9]) |
| --- | --- | --- | --- | --- | --- | --- | --- | --- | --- | --- | --- | --- | --- | --- | --- | --- | --- | --- | --- | --- | --- | --- |
| CO[C@H]1C(=O)[C@]2(C)[C@@H](OC)C[C@H]3OC[C@@]3(OC(C)=O)[C@H]2[C@H](OC(=O)c2ccccc2)[C@]2(O)C[C@H](OC(=O)[C@H](O)[C@@H](NC(=O)OC(C)(C)C)c3ccccc3)C(C)=C1C2(C)C [CABAZITAXEL] | 71.3 | 119 | 68.4 | 141 | 147 | 156 | 123 | 102 | 78.2 | 255 | 37.8 | 29.9 | 120 | 50.5 | 515 | 79.4 | – | – | – | – | – | – |
| CC(C)[C@H]1C(=O)N[C@@H](CCCNC(=N)N)C(=O)NCC(=O)N[C@@H](CC(=O)O)C(=O)N[C@H](Cc2ccccc2)C(=O)N1C [CILENGITIDE] | 10.1 | 4.08 | 15.6 | 8.99 | 3.86 | 8.33 | 4.22 | 11.4 | 2.93 | 4.77 | 0 | 0 | 0 | 4.38 | 1.67 | 0 | – | – | – | – | – | – |
| CC(C)(C)c1nc(-c2cccc(NS(=O)(=O)c3c(F)cccc3F)c2F)c(-c2ccnc(N)n2)s1 [DABRAFENIB] | 3.8 | 11.5 | 20.8 | 3.09 | 19.7 | 0 | 25.7 | 7.39 | 21.9 | 18.7 | 2.65 | 0.214 | 0 | 3.63 | 13.7 | 3.65 | – | – | – | – | – | – |
| CCN(c1cc(-c2ccc(CN3CCOCC3)cc2)cc(C(=O)NCc2c(C)cc(C)[nH]c2=O)c1C)C1CCOCC1 [EPZ-6438] | 4.38 | 0 | 5.15 | 0 | 12.9 | 0 | 1.99 | 0 | 0 | 9.17 | 0 | 2.24 | 0.349 | 4.66 | 6.79 | 5.32 | – | – | – | – | – | – |
| CC12CC3CC(C)(C1)CC(N)(C3)C2 [MEMANTINE] | 3.62 | 1.76 | 13.8 | 1.54 | 2.39 | 2.91 | 0.964 | 0.942 | 2.25 | 6.14 | 0 | 0 | 1.83 | 1.91 | 21.5 | 0.365 | -4.68 | 32.5% | – | – | – | – |
| O=C([C@@H](Cc1cccc(C(F)(F)F)c1)NS(=O)(=O)c1cc(F)c2c(c1)CCNC2)N1CCCC1 [PFI-2] | 14 | 0.851 | 4.47 | 0 | 5.29 | 6.57 | 4.9 | 0 | 5.68 | 4.77 | 8.26 | 1.68 | 0 | 3.09 | 14.4 | 6.82 | -4.58 | 24.8% | -4.51 | 27.5% | – | – |
| CCOC(=O)c1ccc(C#Cc2ccc3c(c2)C(C)(C)CCS3)nc1 [TAZAROTENE] | 10.3 | 19.5 | 5.61 | 25.9 | 0 | 12.3 | 27.7 | 11.6 | 15.5 | 45.5 | 0 | 14.7 | 0 | 12.6 | 230 | 17 | -5.98 | 107% | – | – | -4.78 | 21.6% |
| O=C(CCCCCCC(=O)Nc1ccc([C@H]2O[C@@H](CSc3nc(-c4ccccc4)c(-c4ccccc4)o3)C[C@@H](c3ccc(CO)cc3)O2)cc1)NO [TUBACIN] | 8.41 | 3.94 | 22.1 | 5.5 | 4.17 | 3.24 | 4.96 | 0 | 0 | 0.838 | 1.17 | 0 | 8.78 | 1.78 | 43.2 | 17 | -4.84 | 51.8% | – | – | -4.6 | 29.5% |
| C[C@]1(c2nc3c(C(N)=O)cccc3[nH]2)CCCN1 [VELIPARIB] | 0 | 0 | 1.28 | 6.96 | 3.94 | 1.41 | 0 | 0 | 0 | 6.66 | 0 | 0 | 7.71 | 9.93 | 100 | 7.64 | -4.72 | 99.9% | – | – | – | – |
| CS(=O)(=O)c1ccc(C(=O)Nc2ccc(Cl)c(-c3ccccn3)c2)c(Cl)c1 [VISMODEGIB] | 6.39 | 7.51 | 5.14 | 2.06 | 0 | 1.06 | 11.1 | 0.511 | 11.3 | 6.55 | 0 | 2.44 | 0 | 7.7 | 28.8 | 25.8 | -4.83 | 34.8% | – | – | – | – |
| O=c1ncccn1[C@@H]1O[C@H](CO)[C@@H](O)[C@H]1O [ZEBULARINE] | 5.5 | 19.9 | 17.7 | 11.6 | 4.92 | 20 | 2.92 | 15.7 | 2.58 | 12 | 13.2 | 32.2 | 5.55 | 7.86 | 15.3 | 6.4 | – | – | – | – | – | – |
